The record followed here is ChEMBL document CHEMBL3779859, “Synergistic activity of a short lipidated antimicrobial peptide (lipoAMP) and colistin or tobramycin against Pseudomonas aeruginosa from cystic fibrosis patients” (Medchemcomm, 2016).

By MIC is commonly meant the smallest concentration in the dilution series that meets the test's criterion for growth inhibition. High values mean a less susceptible organism, low ones a more susceptible organism. Usually inhibition stands for the share of the control response that was lost under treatment.

In assay [1] the test system is Pseudomonas aeruginosa. The experiment in a line: Antibacterial activity against Pseudomonas aeruginosa kl 3.2 clinical isolate after 16 to 20 hrs by microdilution assay. The class given is functional. In general terms: Broth dilution looks for growth in wells or tubes with falling amounts of substance.
Assay [2] has as its system Pseudomonas aeruginosa. The experiment in a line: Antibacterial activity against Pseudomonas aeruginosa KD491 clinical isolate after 16 to 20 hrs by microdilution assay. The class given is functional.
Assay [3] concerns Pseudomonas aeruginosa. The experiment in a line: Antibacterial activity against Pseudomonas aeruginosa LES400 clinical isolate after 16 to 20 hrs by microdilution assay. Format: functional.
Assay [4] has as its system Pseudomonas aeruginosa. The experiment in a line: Antibacterial activity against Pseudomonas aeruginosa MIDLANDS clinical isolate after 16 to 20 hrs by microdilution assay. Format: functional.
The subject of assay [5] is Pseudomonas aeruginosa. The experiment in a line: Antibacterial activity against Pseudomonas aeruginosa KD557 clinical isolate after 16 to 20 hrs by microdilution assay. Format: functional.
Assay [6] has as its system Pseudomonas aeruginosa. The experiment in a line: Antibacterial activity against Pseudomonas aeruginosa D599 clinical isolate after 16 to 20 hrs by microdilution assay. The class given is functional.
Assay [7] deals with Pseudomonas aeruginosa. The experiment in a line: Antibacterial activity against Pseudomonas aeruginosa VW1471 clinical isolate after 16 to 20 hrs by microdilution assay. Format: functional.
Assay [8] concerns Pseudomonas aeruginosa. The experiment in a line: Antibacterial activity against Pseudomonas aeruginosa Clone C clinical isolate after 16 to 20 hrs by microdilution assay. The class given is functional.
The subject of assay [9] is Pseudomonas aeruginosa. The experiment in a line: Antibacterial activity against Pseudomonas aeruginosa VW313 clinical isolate after 16 to 20 hrs by microdilution assay. Format: functional.
Assay [10] deals with Pseudomonas aeruginosa. The experiment in a line: Antibacterial activity against Pseudomonas aeruginosa VW1540 clinical isolate after 16 to 20 hrs by microdilution assay. The class given is functional.
Assay [11] concerns Pseudomonas aeruginosa. The experiment in a line: Antibacterial activity against Pseudomonas aeruginosa LES431 clinical isolate after 16 to 20 hrs by microdilution assay. The class given is functional.
The test system of assay [12] is Pseudomonas aeruginosa. The experiment in a line: Antibacterial activity against Pseudomonas aeruginosa VW178 clinical isolate after 16 to 20 hrs by microdilution assay. Format: functional.
The subject of assay [13] is Pseudomonas aeruginosa. The experiment in a line: Antibacterial activity against Pseudomonas aeruginosa VW1501 clinical isolate after 16 to 20 hrs by microdilution assay. Format: functional.
For assay [14], the system named is Pseudomonas aeruginosa. The experiment in a line: Antibacterial activity against Pseudomonas aeruginosa VW1633 clinical isolate after 16 to 20 hrs by microdilution assay. Format: functional.
Assay [15] relates to Pseudomonas aeruginosa. The experiment in a line: Antibacterial activity against Pseudomonas aeruginosa LESB58 clinical isolate after 16 to 20 hrs by microdilution assay. Format: functional.
The test system of assay [16] is Pseudomonas aeruginosa. The experiment in a line: Antibacterial activity against Pseudomonas aeruginosa VW0247 clinical isolate after 16 to 20 hrs by microdilution assay. The class given is functional.
Assay [17] relates to Pseudomonas aeruginosa. The experiment in a line: Antibacterial activity against Pseudomonas aeruginosa kl 1.1 clinical isolate after 16 to 20 hrs by microdilution assay. The class given is functional.
Assay [18] has as its system Pseudomonas aeruginosa. The experiment in a line: Antibacterial activity against Pseudomonas aeruginosa PAO1 clinical isolate after 16 to 20 hrs by microdilution assay. Format: functional.
Assay [19] has as its system Pseudomonas aeruginosa. The experiment in a line: Antibacterial activity against Pseudomonas aeruginosa VW1485 clinical isolate after 16 to 20 hrs by microdilution assay. Format: functional.
Assay [20] has as its system Pseudomonas aeruginosa. The experiment in a line: Antibacterial activity against Pseudomonas aeruginosa VW1538 clinical isolate after 16 to 20 hrs by microdilution assay. Format: functional.
For assay [21], the system named is Pseudomonas aeruginosa. The experiment in a line: Antibacterial activity against Pseudomonas aeruginosa KD491 clinical isolate assessed as delay in growth rate in exponential phase of bacterial growth curve at 1 ug/ml measured every 15 mins by microtiter plate reader method. The class given is functional, organism-based.
Assay [22] concerns Pseudomonas aeruginosa. The experiment in a line: Antibacterial activity against Pseudomonas aeruginosa Clone C clinical isolate assessed as delay in growth rate in exponential phase of bacterial growth curve at 0.25 ug/ml measured every 15 mins by microtiter plate reader method. Format: functional, organism-based.
The subject of assay [23] is Pseudomonas aeruginosa. The experiment in a line: Antibacterial activity against Pseudomonas aeruginosa PAO1 clinical isolate assessed as delay in growth rate in exponential phase of bacterial growth curve at 0.25 ug/ml measured every 15 mins by microtiter plate reader method. The class given is functional, organism-based.
For assay [24], the system named is Pseudomonas aeruginosa. The experiment in a line: Antibacterial activity against Pseudomonas aeruginosa LESB58 clinical isolate assessed as delay in growth rate in exponential phase of bacterial growth curve at 1 ug/ml measured every 15 mins by microtiter plate reader method. Format: functional, organism-based.
For assay [25], the system named is Pseudomonas aeruginosa. The experiment in a line: Antibacterial activity against Pseudomonas aeruginosa PAO1 clinical isolate assessed as inhibition of biofilm formation at 2 ug/ml after 18 to 22 hrs by crystal violet staining-based polystyrene microtiter plate reader method. The class given is functional, organism-based.
The subject of assay [26] is Pseudomonas aeruginosa. The experiment in a line: Antibacterial activity against Pseudomonas aeruginosa LESB58 clinical isolate assessed as prolongation of lag phase in bacterial growth curve at 2 ug/ml measured every 15 mins by microtiter plate reader method. Format: functional, organism-based.
For assay [27], the system named is Pseudomonas aeruginosa. The experiment in a line: Antibacterial activity against Pseudomonas aeruginosa LESB58 clinical isolate assessed as growth rate in exponential phase at 2 ug/ml measured every 15 mins by microtiter plate reader method. The class given is functional, organism-based.
In assay [28] the test system is Pseudomonas aeruginosa. The experiment in a line: Antibacterial activity against Pseudomonas aeruginosa KD491 clinical isolate assessed as prolongation time of lag phase in bacterial growth curve at 0.25 ug/ml measured every 15 mins by microtiter plate reader method. Format: functional, organism-based.
For assay [29], the system named is Pseudomonas aeruginosa. The experiment in a line: Antibacterial activity against Pseudomonas aeruginosa Clone C clinical isolate assessed as inhibition of biofilm formation at 2 ug/ml after 18 to 22 hrs by crystal violet staining-based polystyrene microtiter plate reader method. The class given is functional, organism-based.
Assay [30] deals with Pseudomonas aeruginosa. The experiment in a line: Antibacterial activity against Pseudomonas aeruginosa KD491 clinical isolate assessed as growth rate in exponential phase at 0.25 ug/ml measured every 15 mins by microtiter plate reader method. Format: functional, organism-based.

Converted amounts (≈) assume the structure as drawn. The source made the active and inactive calls. Peptide text beside a SMILES is read from it. * marks the point of attachment. Octanoyl = CCCCCCCC(=O)*

With `C[C@@H](O)[C@H]1C(=O)N2C(C(=O)O)=C(S[C@@H]3CN[C@H](C(=O)N(C)C)C3)[C@H](C)[C@H]12` [MEROPENEM], the MIC in assay [1] was 4 µg/mL (≈ 10.4 µM); in assay [2] it was 16 µg/mL (≈ 41.7 µM); in assay [3], 2 µg/mL (≈ 5.22 µM); in assay [4] it was 16 µg/mL (≈ 41.7 µM); in [5], 1 µg/mL (≈ 2.61 µM); in assay [6], 0.5 µg/mL (≈ 1.3 µM). Besides, the MIC in [7] worked out at 32 µg/mL (≈ 83.4 µM); in [8], 2 µg/mL (≈ 5.22 µM); in assay [9], 16 µg/mL (≈ 41.7 µM); in assay [10], 1 µg/mL (≈ 2.61 µM); in [11], 8 µg/mL (≈ 20.9 µM); in assay [12] it was 2 µg/mL (≈ 5.22 µM). Moreover, the MIC in assay [13] was 0.25 µg/mL (≈ 0.652 µM); in assay [14], 1 µg/mL (≈ 2.61 µM); in assay [15] it was 2 µg/mL (≈ 5.22 µM); in [16], 0.25 µg/mL (≈ 0.652 µM); in assay [17], 4 µg/mL (≈ 10.4 µM); in [18], 2 µg/mL (≈ 5.22 µM). In [19], this compound displayed a minimum inhibitory concentration (MIC) of 0.25 µg/mL (≈ 0.652 µM).
Consider `NC[C@H]1O[C@H](O[C@H]2[C@H](O)[C@@H](O[C@H]3O[C@H](CO)[C@@H](O)[C@H](N)[C@H]3O)[C@H](N)C[C@@H]2N)[C@H](N)C[C@@H]1O` [TOBRAMYCIN], for which the MIC came to 16 µg/mL (≈ 34.2 µM) in assay [1]; 8 µg/mL (≈ 17.1 µM) in assay [2]; 8 µg/mL (≈ 17.1 µM) in [3]; 8 µg/mL (≈ 17.1 µM) in assay [20]; 2 µg/mL (≈ 4.28 µM) in assay [4]; 1 µg/mL (≈ 2.14 µM) in assay [5]. Also, the MIC in [6] was 0.5 µg/mL (≈ 1.07 µM); in assay [7], 8 µg/mL (≈ 17.1 µM); in assay [8], 1 µg/mL (≈ 2.14 µM); in assay [9], 16 µg/mL (≈ 34.2 µM); in [10], 0.125 µg/mL (≈ 0.267 µM); in assay [11] it was 2 µg/mL (≈ 4.28 µM). In addition, the MIC in assay [12] was found to be 32 µg/mL (≈ 68.4 µM); in assay [13], 4 µg/mL (≈ 8.56 µM); in [14], 0.125 µg/mL (≈ 0.267 µM); in assay [15] it was 8 µg/mL (≈ 17.1 µM); in assay [16], 4 µg/mL (≈ 8.56 µM); in [17] it was 4 µg/mL (≈ 8.56 µM). The values for the MIC in [18] and in [19] were 2 µg/mL (≈ 4.28 µM) and 16 µg/mL (≈ 34.2 µM), respectively. In addition, the outcome in assay [21], in assay [22], in assay [23] and in assay [24] was Active.
On to `CC(C)(O/N=C(\C(=O)N[C@@H]1C(=O)N2C(C(=O)[O-])=C(C[n+]3ccccc3)CS[C@H]12)c1csc(N)n1)C(=O)O` [CEFTAZIDIME], for which the minimum inhibitory concentration (MIC) was 2 µg/mL (≈ 3.66 µM) in [1]; more than 256 µg/mL in [2]; 32 µg/mL (≈ 58.5 µM) in assay [3]; 8 µg/mL (≈ 14.6 µM) in [20]; 64 µg/mL (≈ 117 µM) in assay [4]; 2 µg/mL (≈ 3.66 µM) in [5]. The minimum inhibitory concentration (MIC) in assay [6] is 1 µg/mL (≈ 1.83 µM); in assay [7] it was 128 µg/mL (≈ 234 µM); in assay [8], 2 µg/mL (≈ 3.66 µM); in [9], more than 256 µg/mL; in assay [10] it was 16 µg/mL (≈ 29.3 µM); in assay [11] it was 256 µg/mL (≈ 468 µM). Further, the MIC was 2 µg/mL (≈ 3.66 µM) in [12]; 4 µg/mL (≈ 7.32 µM) in assay [13]; more than 256 µg/mL in assay [14]; 256 µg/mL (≈ 468 µM) in [15]; 16 µg/mL (≈ 29.3 µM) in [16]; 2 µg/mL (≈ 3.66 µM) in assay [17]. Further, the values for the MIC in assay [18] and in [19] were 1 µg/mL (≈ 1.83 µM) and 8 µg/mL (≈ 14.6 µM), respectively.
Turning to `CCCCCCCC(=O)N[C@@H](CCCNC(=N)N)C(=O)N[C@@H](Cc1c[nH]c2ccccc12)C(=O)N[C@@H](CCCNC(=N)N)C(=O)N[C@@H](Cc1c[nH]c2ccccc12)C(=O)N[C@@H](CCCNC(=N)N)C(=O)N[C@@H](Cc1c[nH]c2ccccc12)C(=O)N[C@@H](CCCCN)C(=O)O` (Octanoyl-RWRWRWK-OH), the MIC in [2] was determined as 16 µg/mL (≈ 12.3 µM); in assay [11] it was 64 µg/mL (≈ 49.2 µM); in [14] it was 32 µg/mL (≈ 24.6 µM).
Regarding COLISTIN, the MIC in assay [1] was found to be 8 µg/mL; in assay [2], 2 µg/mL; in assay [3], 4 µg/mL; in assay [20], 2 µg/mL; in [4], 4 µg/mL; in [5] it was 8 µg/mL. For the same compound, the MIC in assay [6] is 4 µg/mL; in assay [7] it was 4 µg/mL; in assay [8], 4 µg/mL; in [9] it was 4 µg/mL; in [10], 4 µg/mL; in [11], 2 µg/mL. The MIC in assay [12] turned out to be 4 µg/mL; in [13], 2 µg/mL; in assay [14] it was 2 µg/mL; in assay [15], 32 µg/mL; in [16], 2 µg/mL; in assay [17], 4 µg/mL. Moreover, the results for the MIC in [18] and in [19] were 4 µg/mL and more than 128 µg/mL, respectively. Further, the inhibition in assay [25] and in [29] was less than 20% throughout. Moreover, the outcome in assay [26] was Active. The outcome in assay [27] and in assay [30] was inactive. Further, the TIME in [28] is 4 h.
